pEC50: −log10 of the molar value. Converted amounts (≈) assume the structure as drawn.
Legend:
[1] = Human Plasma Protein Binding (Test B); format: in vitro ADME; conditions: fraction unbound (fu)
Summary of the method: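 Human plasma protein binding run per the published Wernevik et al. (2020) integrated DMPK panel protocol. Values are fraction unbound (fu, % free); repeat runs averaged arithmetically.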

[2] = Human Liver Microsomal Stability (Test C); format: in vitro ADME; conditions: human, liver microsomes
Summary of the method: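 Human liver microsome incubation per the Wernevik et al. integrated DMPK panel protocol. Intrinsic clearance reported as CLint in μl/min/mg protein, averaged arithmetically over repeat runs.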

[3] = Human Hepatocyte Stability (Test D); format: in vitro ADME; conditions: human, cryopreserved pooled human hepatocytes (LiverPool 10-Donor), geometric mean if run multiple times
Summary of the method: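 Pooled 10-donor cryopreserved human hepatocytes (≥80% viable) in L-15 medium at 0.25×10^6 cells per 0.25 mL well. Compound added from 100 μM acetonitrile solution; incubated at 37 °C with shaking, acetonitrile-quenched, LC-MS analysed. Clint (μL/min/10^6 cells) from ln % parent vs time slope; geometric mean of repeat runs.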

[4] = Rat Hepatocyte Stability (Test E); format: in vitro ADME; conditions: rat, hepatocytes, geometric mean if run multiple times
Summary of the method: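 Run per the published AstraZeneca-type rat hepatocyte stability protocol (Wernevik et al. panel). Values are mean intrinsic clearance, Clint in μl/min/10^6 cells; geometric mean used for repeated runs.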

Solubility (Test F) = format: physicochemical; conditions: arithmetic mean if run multiple times
Description: The assay was conducted according to the Solubility Assay described in pages 164-167 of Wernevik, J. et al., “A Fully Integrated Assay Panel for Early Drug Metabolism and Pharmacokinetics Profiling”, Assay and Drug Development Technologies, 2020, 18(4), 157-179. Data are reported in Table 36 as solubility ([…]. Where the assay was run multiple times for the same compound, the arithmetic mean is reported.

human RXFP1 = target: T1, human RXFP1 (Homo sapiens, UniProt Q9HBX9); assay: RXFP1 Hu cAMP (Test A); format: cell-based; design: expressed in transfected cells; host or cells: Jump-In T-REx CHO-K1 cells (ThermoFisher), induced with 10 ng/ml doxycycline for 24 h; conditions: RXFP1 Hu cAMP; for pEC50: read-out: Test A EC50
T1 sequence (Q9HBX9 1-757): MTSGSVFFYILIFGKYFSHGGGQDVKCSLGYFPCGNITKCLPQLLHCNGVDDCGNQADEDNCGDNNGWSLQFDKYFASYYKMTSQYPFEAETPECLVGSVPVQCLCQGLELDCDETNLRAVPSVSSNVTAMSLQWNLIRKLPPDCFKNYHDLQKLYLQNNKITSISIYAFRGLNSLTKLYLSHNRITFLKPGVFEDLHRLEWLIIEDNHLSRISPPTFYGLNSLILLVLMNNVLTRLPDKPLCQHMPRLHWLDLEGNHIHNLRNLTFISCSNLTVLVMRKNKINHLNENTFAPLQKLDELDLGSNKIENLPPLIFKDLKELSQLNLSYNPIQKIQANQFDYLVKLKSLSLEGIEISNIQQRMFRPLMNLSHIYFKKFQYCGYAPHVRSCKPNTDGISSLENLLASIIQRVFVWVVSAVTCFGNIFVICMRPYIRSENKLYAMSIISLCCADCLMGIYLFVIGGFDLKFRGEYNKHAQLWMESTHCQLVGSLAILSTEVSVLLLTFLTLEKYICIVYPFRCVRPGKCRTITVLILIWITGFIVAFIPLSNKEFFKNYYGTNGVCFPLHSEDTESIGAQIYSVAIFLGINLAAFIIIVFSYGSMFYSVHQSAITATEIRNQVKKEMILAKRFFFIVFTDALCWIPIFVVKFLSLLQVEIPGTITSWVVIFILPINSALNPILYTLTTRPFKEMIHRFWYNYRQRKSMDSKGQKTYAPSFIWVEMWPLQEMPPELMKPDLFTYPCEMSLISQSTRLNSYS
Summary of the method: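 Doxycycline-induced (10 ng/ml, 24 h) CHO-K1 cells stably expressing human RXFP1; cAMP read by competitive HTRF after 2 h at room temperature, with 0.5 mM IBMX final.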

Row | Compound | Test B Human Plasma Protein Binding (% free) [1] | microsomal CLint [2] | hepatocyte CLint at 1 µM [3] | hepatocyte CLint [4] | solubility (Solubility (Test F)) | Test A Sinf (human RXFP1) | pEC50 (human RXFP1)
1 | CC(C)Oc1cc(F)c(O[C@H]2CC[C@@](CO)(C(=O)O)CC2)cc1C(=O)N[C@@H]1[C@H]2CC[C@H](C2)[C@@H]1C(=O)NCC1(C)CCC1 [Example 486, (1S,4s)-4-(2-Fluoro-4-isopropoxy-5-(((1S,2R,3S,4R)-3-(((1-methylcyclobutyl)methyl)carbamoyl)bicyclo[2.2.1]heptan-2-yl)carbamoyl)phenoxy)-1-(hydroxymethyl)cyclohexane-1-carboxylic acid] | 6.8 % free | 35 µL/min/mg | 22 µL/min/1e6 cells | 28 µL/min/1e6 cells | 950 µM (≈ 559 µg/mL) | 107% | 8.12
2 | COc1cc(F)c(O[C@H]2CC[C@@H](C(=O)O)CC2)cc1C(=O)N[C@H]1[C@@H](C(=O)Nc2ccc(F)c(S(F)(F)(F)(F)F)c2)[C@@H]2C=C[C@H]1C2 [Example 488, (1S,4s)-4-(2-fluoro-5-(((1R,2R,3S,4S)-3-((4-fluoro-3-(pentafluoro-λ6-sulfaneyl)phenyl)carbamoyl)bicyclo[2.2.1]hept-5-en-2-yl)carbamoyl)-4-methoxyphenoxy)cyclohexane-1-carboxylic acid] | 0.13 % free | 23 µL/min/mg | 12 µL/min/1e6 cells | 22 µL/min/1e6 cells | 1000 µM (≈ 667 µg/mL) | 115% | > 8.44
3 | COc1cc(F)c(O[C@H]2CC[C@@H](C(=O)O)CC2)cc1C(=O)N[C@@H]1CCC[C@@H]1C(=O)Nc1cccc(S(=O)(=O)C(F)(F)F)c1 [Example 490] | 1.9 % free | 30 µL/min/mg | 17 µL/min/1e6 cells | 16 µL/min/1e6 cells | 940 µM (≈ 593 µg/mL) | 127% | 6.52
4 | COc1cc(F)c(O[C@H]2CC[C@@H](C(=O)O)CC2)cc1C(=O)N[C@@H]1[C@H]2CC[C@H](C2)[C@@H]1C(=O)Nc1cccc(S(=O)(=O)C(F)(F)F)c1 [Example 491] | 2.1 % free | 42 µL/min/mg | 15 µL/min/1e6 cells | 23 µL/min/1e6 cells | 550 µM (≈ 361 µg/mL) | 102% | 7.38
5 | COc1cc(F)c(O[C@H]2CC[C@@H](C(=O)O)CC2)cc1C(=O)N[C@@H]1CCC[C@@H]1C(=O)Nc1ccc(F)c(C(F)(F)F)c1 [Example 492] | 1.8 % free | 36 µL/min/mg | 18 µL/min/1e6 cells | 19 µL/min/1e6 cells | 1000 µM (≈ 585 µg/mL) | 106% | 6.80
6 | COc1cc(F)c(O[C@H]2CC[C@@H](C(=O)O)CC2)cc1C(=O)N[C@H]1[C@@H](C(=O)Nc2ccc(OC)c(S(=O)(=O)C(F)(F)F)c2)[C@@H]2C=C[C@H]1C2 [Example 497, (1S,4s)-4-(2-Fluoro-4-methoxy-5-(((1R,2R,3S,4S)-3-((4-methoxy-3-((trifluoromethyl)sulfonyl)phenyl)carbamoyl)bicyclo[2.2.1]hept-5-en-2-yl)carbamoyl)phenoxy)cyclohexane-1-carboxylic acid] | 3.3 % free | < 3 µL/min/mg | 4.4 µL/min/1e6 cells | 19 µL/min/1e6 cells | > 1000 µM | 108% | 6.49
7 | COc1cc(F)c(O[C@H]2CC[C@@H](C(N)=O)CC2)cc1C(=O)N[C@H]1[C@@H](C(=O)Nc2ccc(F)c(C(F)(F)F)c2)[C@@H]2C=C[C@H]1C2 [Example 499, (1S,2S,3R,4R)-3-(5-(((1s,4S)-4-Carbamoylcyclohexyl)oxy)-4-fluoro-2-methoxybenzamido)-N-(4-fluoro-3-(trifluoromethyl)phenyl)bicyclo[2.2.1]hept-5-ene-2-carboxamide] | 0.51 % free | 200 µL/min/mg | 28 µL/min/1e6 cells | 96 µL/min/1e6 cells | 13 µM (≈ 7.9 µg/mL) | 128% | 7.00
8 | COc1cc(F)c(O[C@H]2CC[C@@H](C(N)=O)CC2)cc1C(=O)N[C@@H]1[C@H]2CC[C@H](C2)[C@@H]1C(=O)Nc1ccc(F)c(C(F)(F)F)c1 [Example 500, (1R,2S,3R,4S)-3-(5-(((1s,4S)-4-Carbamoylcyclohexyl)oxy)-4-fluoro-2-methoxybenzamido)-N-(4-fluoro-3-(trifluoromethyl)phenyl)bicyclo[2.2.1]heptane-2-carboxamide] | 0.44 % free | > 300 µL/min/mg | 45 µL/min/1e6 cells | 98 µL/min/1e6 cells | 8 µM (≈ 4.88 µg/mL) | 110% | 7.19
9 | COc1cc(C#N)c(O[C@H]2CC[C@@](C)(C(=O)O)CC2)cc1C(=O)N[C@@H]1[C@@H]2CC[C@@H](C2)[C@@H]1C(=O)NCC(C)(C)C(F)(F)F [Example 502, (1S,4s)-4-(2-Cyano-4-methoxy-5-(((1R,2R,3S,4S)-3-((3,3,3-trifluoro-2,2-dimethylpropyl)carbamoyl)bicyclo[2.2.1]heptan-2-yl)carbamoyl)phenoxy)-1-methylcyclohexane-1-carboxylic acid] | 4 % free | < 4.5 µL/min/mg | 5.3 µL/min/1e6 cells | 7.2 µL/min/1e6 cells | 910 µM (≈ 540 µg/mL) | 106% | 8.07
10 | COc1cc(F)c(O[C@H]2CC[C@@H](C(=O)O)CC2)cc1C(=O)N[C@@H]1[C@@H]2CC[C@@H](C2)[C@@H]1C(=O)Nc1cccc(S(F)(F)(F)(F)F)c1 [Example 509, (1S,4s)-4-(2-Fluoro-4-methoxy-5-(((1R,2R,3S,4S)-3-((3-(pentafluoro-A6-sulfaneyl)phenyl)carbamoyl)bicyclo[2.2.1]heptan-2-yl)carbamoyl)phenoxy)cyclohexane-1-carboxylic acid] | <0.070 % free | 9.4 µL/min/mg | 5 µL/min/1e6 cells | 7 µL/min/1e6 cells | 1000 µM (≈ 651 µg/mL) | 125% | 7.89
11 | COc1cc(F)c(O[C@H]2CC[C@@](C)(C(=O)O)CC2)cc1C(=O)N[C@@H]1[C@H]2CC[C@H](C2)[C@@H]1C(=O)N[C@@H]1CCCN(S(=O)(=O)C(F)(F)F)C1 [Example 604] | 6.7 % free | 110 µL/min/mg | 13 µL/min/1e6 cells | 14 µL/min/1e6 cells | 10 µM (≈ 6.78 µg/mL) | 105% | 6.96
